Measured values taken from US9340590B2 (priority 2011, dated 2016).
Where two headings read alike, the source gives them in different places. Positions of bridges follow the written chain, without caps; N, C: chain ends. Non-standard residues stand in square brackets, D forms with d. Residues, ends and D or L forms follow the SMILES beside them. Trp(1-Me) = Cn1cc(C[C@H](N)C(=O)O)c2ccccc21; Arg(Me2s) = CN=C(NC)NCCC[C@H](N)C(=O)O

Key:
Experiment in all cases: cell-based
hNav1.5 = hNav1.5 (Homo sapiens, UniProt Q14524); details: IonWorks Quattro, read-out: IWQ Use Nav1.5
Sequence of hNav1.5 (Q14524 whole entry, looked up): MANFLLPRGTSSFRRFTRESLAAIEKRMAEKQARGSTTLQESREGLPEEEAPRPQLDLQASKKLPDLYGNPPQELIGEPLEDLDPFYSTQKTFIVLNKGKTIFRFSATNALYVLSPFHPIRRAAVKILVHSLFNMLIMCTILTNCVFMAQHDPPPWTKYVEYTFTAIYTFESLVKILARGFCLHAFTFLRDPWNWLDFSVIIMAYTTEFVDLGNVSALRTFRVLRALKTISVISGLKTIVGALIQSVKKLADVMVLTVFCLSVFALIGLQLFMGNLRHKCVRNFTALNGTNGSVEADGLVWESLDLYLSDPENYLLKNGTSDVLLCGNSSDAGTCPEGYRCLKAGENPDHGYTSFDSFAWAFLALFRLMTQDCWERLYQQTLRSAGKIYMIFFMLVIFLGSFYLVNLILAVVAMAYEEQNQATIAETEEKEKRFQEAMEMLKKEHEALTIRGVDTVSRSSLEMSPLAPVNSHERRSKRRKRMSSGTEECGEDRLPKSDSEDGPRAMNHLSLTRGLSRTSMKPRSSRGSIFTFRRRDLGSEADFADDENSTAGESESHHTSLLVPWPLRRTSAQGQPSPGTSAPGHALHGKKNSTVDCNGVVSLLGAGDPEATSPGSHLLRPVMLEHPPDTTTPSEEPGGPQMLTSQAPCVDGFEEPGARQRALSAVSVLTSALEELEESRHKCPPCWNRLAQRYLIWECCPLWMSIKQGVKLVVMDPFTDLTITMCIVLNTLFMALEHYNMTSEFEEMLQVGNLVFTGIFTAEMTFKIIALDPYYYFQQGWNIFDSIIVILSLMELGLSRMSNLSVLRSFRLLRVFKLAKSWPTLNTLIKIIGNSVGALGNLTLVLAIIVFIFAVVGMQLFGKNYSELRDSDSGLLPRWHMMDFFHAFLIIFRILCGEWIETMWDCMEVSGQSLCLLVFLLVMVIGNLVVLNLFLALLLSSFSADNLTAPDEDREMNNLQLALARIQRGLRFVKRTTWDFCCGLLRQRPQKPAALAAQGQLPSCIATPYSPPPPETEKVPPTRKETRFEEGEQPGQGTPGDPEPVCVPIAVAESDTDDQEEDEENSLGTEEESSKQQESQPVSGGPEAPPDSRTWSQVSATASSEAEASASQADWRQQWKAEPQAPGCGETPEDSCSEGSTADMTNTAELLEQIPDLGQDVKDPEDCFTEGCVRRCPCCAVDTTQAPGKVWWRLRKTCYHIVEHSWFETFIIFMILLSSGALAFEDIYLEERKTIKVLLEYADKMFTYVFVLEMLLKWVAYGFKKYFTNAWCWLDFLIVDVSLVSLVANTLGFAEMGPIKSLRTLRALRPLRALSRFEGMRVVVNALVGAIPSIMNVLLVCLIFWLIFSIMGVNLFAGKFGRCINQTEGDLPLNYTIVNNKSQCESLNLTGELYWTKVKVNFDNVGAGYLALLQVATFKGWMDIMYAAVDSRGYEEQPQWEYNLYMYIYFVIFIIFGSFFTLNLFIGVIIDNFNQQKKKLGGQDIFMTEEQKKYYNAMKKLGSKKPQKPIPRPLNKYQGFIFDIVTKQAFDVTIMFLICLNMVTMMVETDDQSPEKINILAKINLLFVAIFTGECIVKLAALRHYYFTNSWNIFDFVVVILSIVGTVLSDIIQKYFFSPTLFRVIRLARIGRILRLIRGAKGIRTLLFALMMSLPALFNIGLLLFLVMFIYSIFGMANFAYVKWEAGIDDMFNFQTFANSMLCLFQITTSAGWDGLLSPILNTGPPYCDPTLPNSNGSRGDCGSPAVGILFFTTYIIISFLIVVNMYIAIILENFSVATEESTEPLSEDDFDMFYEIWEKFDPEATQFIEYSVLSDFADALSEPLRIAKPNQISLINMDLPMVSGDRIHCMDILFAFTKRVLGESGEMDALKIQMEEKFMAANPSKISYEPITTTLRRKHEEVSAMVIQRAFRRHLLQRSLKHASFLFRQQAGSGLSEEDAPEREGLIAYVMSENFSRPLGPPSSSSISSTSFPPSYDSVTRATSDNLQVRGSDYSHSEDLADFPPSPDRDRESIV

hNav1.3 = hNav1.3 (Homo sapiens, UniProt Q9NY46); details: IonWorks Quattro, read-out: IWQ Use Nav1.3
Sequence of hNav1.3 (Q9NY46 whole entry, looked up): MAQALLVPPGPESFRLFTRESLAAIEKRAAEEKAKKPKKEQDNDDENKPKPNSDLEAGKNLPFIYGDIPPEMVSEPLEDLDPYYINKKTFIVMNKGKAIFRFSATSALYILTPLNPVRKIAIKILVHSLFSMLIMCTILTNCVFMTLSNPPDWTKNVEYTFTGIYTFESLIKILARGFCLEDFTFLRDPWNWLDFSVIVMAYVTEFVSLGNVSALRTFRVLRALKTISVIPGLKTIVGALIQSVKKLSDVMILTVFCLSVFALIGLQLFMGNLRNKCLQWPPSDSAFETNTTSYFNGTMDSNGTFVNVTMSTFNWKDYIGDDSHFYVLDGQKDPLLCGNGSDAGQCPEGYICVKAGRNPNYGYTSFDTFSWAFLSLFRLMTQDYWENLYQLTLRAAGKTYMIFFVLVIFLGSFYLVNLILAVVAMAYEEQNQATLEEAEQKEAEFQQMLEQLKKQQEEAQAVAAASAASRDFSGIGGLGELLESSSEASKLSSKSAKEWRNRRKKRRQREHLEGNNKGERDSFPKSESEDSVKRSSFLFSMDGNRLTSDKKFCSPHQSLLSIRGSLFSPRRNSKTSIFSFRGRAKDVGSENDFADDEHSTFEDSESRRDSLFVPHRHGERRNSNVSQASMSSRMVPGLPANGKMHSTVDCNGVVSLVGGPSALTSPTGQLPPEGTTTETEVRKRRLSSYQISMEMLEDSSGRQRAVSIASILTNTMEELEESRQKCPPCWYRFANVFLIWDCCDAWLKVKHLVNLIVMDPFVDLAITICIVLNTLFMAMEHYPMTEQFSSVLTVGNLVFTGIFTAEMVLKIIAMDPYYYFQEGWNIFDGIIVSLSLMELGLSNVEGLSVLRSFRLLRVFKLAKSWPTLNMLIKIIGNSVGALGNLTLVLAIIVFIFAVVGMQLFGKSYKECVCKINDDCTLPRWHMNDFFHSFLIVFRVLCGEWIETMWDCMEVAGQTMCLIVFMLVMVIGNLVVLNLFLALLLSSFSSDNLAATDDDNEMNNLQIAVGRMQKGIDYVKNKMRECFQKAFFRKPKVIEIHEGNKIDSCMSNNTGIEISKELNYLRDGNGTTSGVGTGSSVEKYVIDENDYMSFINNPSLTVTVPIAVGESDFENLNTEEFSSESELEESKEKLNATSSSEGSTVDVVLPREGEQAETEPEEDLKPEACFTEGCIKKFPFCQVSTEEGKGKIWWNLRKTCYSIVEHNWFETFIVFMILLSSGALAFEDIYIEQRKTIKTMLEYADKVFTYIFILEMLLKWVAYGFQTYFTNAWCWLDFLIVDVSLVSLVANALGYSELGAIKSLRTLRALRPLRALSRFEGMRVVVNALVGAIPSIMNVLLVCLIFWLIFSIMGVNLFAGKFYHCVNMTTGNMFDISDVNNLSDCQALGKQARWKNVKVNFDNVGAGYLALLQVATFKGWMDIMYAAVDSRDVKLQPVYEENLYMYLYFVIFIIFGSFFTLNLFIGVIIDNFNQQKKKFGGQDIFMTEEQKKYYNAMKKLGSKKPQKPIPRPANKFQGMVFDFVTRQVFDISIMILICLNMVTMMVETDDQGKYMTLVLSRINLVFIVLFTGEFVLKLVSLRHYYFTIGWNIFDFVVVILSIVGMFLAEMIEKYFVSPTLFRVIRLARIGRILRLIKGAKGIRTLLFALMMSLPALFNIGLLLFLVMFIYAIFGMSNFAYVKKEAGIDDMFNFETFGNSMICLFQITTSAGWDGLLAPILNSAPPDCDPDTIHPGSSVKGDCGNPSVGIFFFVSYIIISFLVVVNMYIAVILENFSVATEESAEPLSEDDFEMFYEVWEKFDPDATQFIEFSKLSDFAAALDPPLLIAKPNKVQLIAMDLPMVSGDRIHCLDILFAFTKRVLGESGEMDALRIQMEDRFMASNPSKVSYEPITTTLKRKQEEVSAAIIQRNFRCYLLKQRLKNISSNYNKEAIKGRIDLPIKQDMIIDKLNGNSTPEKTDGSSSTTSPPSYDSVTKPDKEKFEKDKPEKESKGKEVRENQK

hNav1.7 = hNav1.7 (Homo sapiens, UniProt Q15858); type: cell-based; details: IonWorks Quattro, read-out: IWQ Use Nav1.7
[1] = clamped to −110 mV, depolarized to −10 mV, 5 min after compound, n=2
[2] = use-dependent protocol, hNav1.5
[3] = use-dependent protocol, hNav1.3
[4] = use-dependent protocol, hNav1.7

CC[C@H](C)[C@@H]1NC(=O)[C@@H]2CSSC[C@@H]3NC(=O)[C@H](C(C)C)NC(=O)[C@H](CC(C)C)NC(=O)[C@H](CC(N)=O)NC(=O)[C@@H]4CCCN4C(=O)[C@H](CCCNC(=N)N)NC(=O)[C@H](CSSC[C@H](NC(=O)[C@@H](N)CC(=O)O)C(=O)N[C@@H](CC(C)C)C(=O)NCC(=O)N[C@@H](Cc4ccccc4)C(=O)N[C@@H](CCSC)C(=O)N[C@@H](CCCNC(=N)N)C(=O)N[C@@H](CCCCN)C(=O)N2)NC(=O)[C@H](CSSC[C@@H](C(=O)N[C@@H](CCCCN)C(=O)N[C@@H](Cc2ccc(O)cc2)C(=O)N[C@@H](CCC(N)=O)C(=O)N[C@@H](Cc2ccccc2)C(N)=O)NC(=O)[C@H](Cc2c[nH]c4ccccc24)NC(=O)[C@H](CCCCN)NC(=O)[C@H](Cc2c[nH]cn2)NC(=O)[C@H]([C@@H](C)O)NC(=O)[C@H](CCCNC(=N)N)NC(=O)[C@H](CO)NC3=O)NC(=O)[C@H](CCCCN)NC(=O)[C@H](CC(=O)O)NC(=O)[C@H](CC(N)=O)NC(=O)[C@H](CC(=O)O)NC(=O)[C@@H]2CCCN2C1=O [compound 95] (H-DCLGFMRKCIPDNDKCCRPNLVCSRTHKWCKYQF-NH2; disulfide 2-17, 9-23, 16-30)
IC50 (hNav1.5; Table 26, use, […]): 10600 nM
IC50 (hNav1.3; Table 26, use, […]): 110 nM
IC50 (hNav1.7; Table 26, use, […]): 120 nM

CC[C@@H]1NC(=O)[C@H](Cc2ccccc2)NC(=O)CNC(=O)[C@H](CC(C)C)NC(=O)[C@@H](NC(=O)[C@@H](N)CC(=O)O)CSSC[C@@H]2NC(=O)[C@@H]3CSSC[C@@H](C(=O)N[C@@H](CCCCN)C(=O)N[C@@H](Cc4ccc(O)cc4)C(=O)N[C@H](C(=O)N[C@@H](Cc4ccccc4)C(N)=O)C(C)C)NC(=O)[C@H](Cc4c[nH]c5ccccc45)NC(=O)[C@H](CCCCN)NC(=O)[C@H](Cc4c[nH]cn4)NC(=O)[C@H]([C@@H](C)O)NC(=O)[C@H](CCCNC(=N)N)NC(=O)[C@H](CO)NC(=O)[C@H](CSSC[C@H](NC(=O)[C@H](CCCCN)NC(=O)[C@H](CCCNC(=N)N)NC1=O)C(=O)N[C@@H]([C@@H](C)CC)C(=O)N1CCC[C@H]1C(=O)N[C@@H](CC(=O)O)C(=O)N[C@@H](CC(N)=O)C(=O)N[C@@H](CC(=O)O)C(=O)N[C@@H](CCCCN)C(=O)N3)NC(=O)[C@H](C(C)C)NC(=O)[C@H](CC(C)C)NC(=O)[C@H](CC(N)=O)NC(=O)[C@@H]1CCCN1C(=O)[C@H](CCCNC(=N)N)NC2=O [SEQ ID NO: 124]
IC50 (hNav1.5; [1]): 10600 nM
IC50 (hNav1.3; [1]): 100 nM
IC50 (hNav1.7; [1]): 110 nM

CSCC[C@@H]1NC(=O)[C@H](C)NC(=O)CNC(=O)[C@H](CC(C)C)NC(=O)[C@@H](NC(=O)[C@@H](N)CC(=O)O)CSSC[C@@H]2NC(=O)[C@@H]3CSSC[C@@H](C(=O)N[C@@H](CCCCN)C(=O)N[C@@H](Cc4ccc(O)cc4)C(=O)N[C@H](C(=O)N[C@@H](Cc4ccccc4)C(N)=O)C(C)C)NC(=O)[C@H](Cc4c[nH]c5ccccc45)NC(=O)[C@H](CCCCN)NC(=O)[C@H](Cc4c[nH]cn4)NC(=O)[C@H]([C@@H](C)O)NC(=O)[C@H](CCCNC(=N)N)NC(=O)[C@H](CO)NC(=O)[C@H](CSSC[C@H](NC(=O)[C@H](CCCCN)NC(=O)[C@H](CCCNC(=N)N)NC1=O)C(=O)N[C@@H](CC(=O)O)C(=O)N1CCC[C@H]1C(=O)N[C@@H](CCC(=O)O)C(=O)N[C@@H](CC(N)=O)C(=O)N[C@@H](CC(=O)O)C(=O)N[C@@H](CCCCN)C(=O)N3)NC(=O)[C@H](C(C)C)NC(=O)[C@H](CC(C)C)NC(=O)[C@H](CC(N)=O)NC(=O)[C@@H]1CCCN1C(=O)[C@H](CCCNC(=N)N)NC2=O [compound 701] (H-DCLGAMRKCDPENDKCCRPNLVCSRTHKWCKYVF-NH2; disulfide 2-17, 9-23, 16-30)
IC50 (hNav1.5; [2]): 43000 nM
IC50 (hNav1.3; [3]): 1500 nM
IC50 (hNav1.7; [4]): 970 nM

CC[C@H](C)[C@@H]1NC(=O)[C@@H]2CSSC[C@@H]3NC(=O)[C@@H]4CCCN4C(=O)[C@H](CC(C)C)NC(=O)[C@H](CC(N)=O)NC(=O)[C@@H]4CCCN4C(=O)[C@H](CCCNC(=N)N)NC(=O)[C@H](CSSC[C@H](NC(=O)[C@@H](N)CC(=O)O)C(=O)N[C@@H](CC(C)C)C(=O)NCC(=O)N[C@@H](Cc4ccccc4)C(=O)N[C@@H](CCSC)C(=O)N[C@@H](CCCNC(=N)N)C(=O)N[C@@H](CCCCN)C(=O)N2)NC(=O)[C@H](CSSC[C@@H](C(=O)N[C@@H](CCCCN)C(=O)N[C@@H](Cc2ccc(O)cc2)C(=O)N[C@H](C(=O)N[C@@H](Cc2ccccc2)C(N)=O)C(C)C)NC(=O)[C@H](Cc2c[nH]c4ccccc24)NC(=O)[C@H](CCCCN)NC(=O)[C@H](Cc2c[nH]cn2)NC(=O)[C@H]([C@@H](C)O)NC(=O)[C@H](CCCNC(=N)N)NC(=O)[C@H](CO)NC3=O)NC(=O)[C@H](CCCCN)NC(=O)[C@H](CC(=O)O)NC(=O)[C@H](CC(N)=O)NC(=O)[C@H](CC(=O)O)NC(=O)[C@@H]2CCCN2C1=O [compound 320] (H-DCLGFMRKCIPDNDKCCRPNLPCSRTHKWCKYVF-NH2; disulfide 2-17, 9-23, 16-30)
IC50 (hNav1.5; Use): > 5000 nM
IC50 (hNav1.3; Use): > 5000 nM
IC50 (hNav1.7; Use): > 5000 nM

CSCC[C@@H]1NC(=O)[C@H](C)NC(=O)CNC(=O)[C@H](CC(C)C)NC(=O)[C@@H](NC(=O)[C@@H](N)CC(=O)O)CSSC[C@@H]2NC(=O)[C@@H]3CSSC[C@@H](C(=O)N[C@@H](CCCCN)C(=O)N[C@@H](Cc4ccc(O)cc4)C(=O)N[C@H](C(=O)N[C@@H](Cc4ccccc4)C(N)=O)C(C)C)NC(=O)[C@H](Cc4c[nH]c5ccccc45)NC(=O)[C@H](CCCCN)NC(=O)[C@H](Cc4c[nH]cn4)NC(=O)[C@H]([C@@H](C)O)NC(=O)[C@H](CCCNC(=N)N)NC(=O)[C@H](CO)NC(=O)[C@H](CSSC[C@H](NC(=O)[C@H](CCCCN)NC(=O)[C@H](CCCNC(=N)N)NC1=O)C(=O)N[C@@H](CC(=O)O)C(=O)N1CCC[C@H]1C(=O)N[C@@H](CC(=O)O)C(=O)N[C@@H](CC(N)=O)C(=O)N[C@@H](CC(=O)O)C(=O)N[C@@H](CCCCN)C(=O)N3)NC(=O)[C@H](C(C)C)NC(=O)[C@H](CC(C)C)NC(=O)[C@H](CC(N)=O)NC(=O)[C@@H]1CCCN1C(=O)[C@H](CCCNC(=N)N)NC2=O [compound 700] (H-DCLGAMRKCDPDNDKCCRPNLVCSRTHKWCKYVF-NH2; disulfide 2-17, 9-23, 16-30)
IC50 (hNav1.5; [2]): 35000 nM
IC50 (hNav1.3; [3]): 840 nM
IC50 (hNav1.7; [4]): 740 nM

CC[C@H](C)[C@@H]1NC(=O)[C@@H]2CSSC[C@@H]3NC(=O)[C@H](C(C)C)NC(=O)[C@H](CC(C)C)NC(=O)[C@H](CC(N)=O)NC(=O)[C@@H]4CCCN4C(=O)[C@H](CCCNC(=N)N)NC(=O)[C@H](CSSC[C@H](NC(=O)[C@@H](N)CC(=O)O)C(=O)N[C@@H](CC(C)C)C(=O)NCC(=O)N[C@@H](Cc4ccccc4)C(=O)N[C@@H](CCSC)C(=O)N[C@@H](CCCNC(=N)N)C(=O)N[C@@H](CCCCN)C(=O)N2)NC(=O)[C@H](CSSC[C@@H](C(=O)N[C@@H](CCCCN)C(=O)N[C@@H](Cc2ccc(O)cc2)C(=O)N[C@H](C(=O)N[C@@H](Cc2cn(C)c4ccccc24)C(N)=O)C(C)C)NC(=O)[C@H](Cc2c[nH]c4ccccc24)NC(=O)[C@H](CCCCN)NC(=O)[C@H](Cc2c[nH]cn2)NC(=O)[C@H]([C@@H](C)O)NC(=O)[C@H](CCCNC(=N)N)NC(=O)[C@H](CO)NC3=O)NC(=O)[C@H](CCCCN)NC(=O)[C@H](CC(=O)O)NC(=O)[C@H](CC(N)=O)NC(=O)[C@H](CC(=O)O)NC(=O)[C@@H]2CCCN2C1=O [compound 409] (H-DCLGFMRKCIPDNDKCCRPNLVCSRTHKWCKYV[Trp(1-Me)]-NH2; disulfide 2-17, 9-23, 16-30)
IC50 (hNav1.5; use-dependent, […]): 5610 nM
IC50 (hNav1.3; use-dependent, […]): 70 nM
IC50 (hNav1.7; use-dependent, […]): 90 nM

CC[C@H](C)[C@@H]1NC(=O)[C@@H]2CSSC[C@@H]3NC(=O)[C@H](C(C)C)NC(=O)[C@H](CC(C)C)NC(=O)[C@H](CC(N)=O)NC(=O)[C@@H]4CCCN4C(=O)[C@H](CCCNC(=N)N)NC(=O)[C@H](CSSC[C@H](NC(=O)[C@@H](N)CC(=O)O)C(=O)N[C@@H](CC(C)C)C(=O)NCC(=O)N[C@@H](Cc4ccccc4)C(=O)N[C@@H](CCSC)C(=O)N[C@@H](CCCNC(=N)N)C(=O)N[C@@H](CCCCN)C(=O)N2)NC(=O)[C@H](CSSC[C@@H](C(=O)N[C@@H](CCCNC(=NC)NC)C(=O)N[C@@H](Cc2ccc(O)cc2)C(=O)N[C@H](C(=O)N[C@@H](Cc2ccccc2)C(N)=O)C(C)C)NC(=O)[C@H](Cc2c[nH]c4ccccc24)NC(=O)[C@H](CCCCN)NC(=O)[C@H](Cc2c[nH]cn2)NC(=O)[C@H]([C@@H](C)O)NC(=O)[C@H](CCCNC(=N)N)NC(=O)[C@H](CO)NC3=O)NC(=O)[C@H](CCCCN)NC(=O)[C@H](CC(=O)O)NC(=O)[C@H](CC(N)=O)NC(=O)[C@H](CC(=O)O)NC(=O)[C@@H]2CCCN2C1=O [compound 365] (H-DCLGFMRKCIPDNDKCCRPNLVCSRTHKWC[Arg(Me2s)]YVF-NH2; disulfide 2-17, 9-23, 16-30)
IC50 (hNav1.5; Table 25, use, […]): 14200 nM
IC50 (hNav1.3; Table 25, use, […]): 4550 nM
IC50 (hNav1.7; Table 25, use, […]): 4150 nM
